Measured values as given in US6872729B2, “Pyrimidinylbenzimidazole and triazinylbenzimidazole derivatives and agricultural/horticultural fungicides” (Kumiai Chemical Industry Co., Ltd., priority 1998, dated 2005).

These molecules were tested on Erysiphe graminis (assay: Test for preventive effect on wheat powdery mildew). Conditions: wheat (Norin-61-go) seedlings, 500 ppm active ingredient, preventive treatment; diseased area of first leaves 10 days after inoculation with Erysiphe graminis.
Format: in vivo
Method: Test for Preventive Effect on Wheat Powdery Mildew 9 Wheat seeds (variety: Norin-61-go) were sown in each 9 cm×9 cm polyvinyl chloride pot, grown in a greenhouse for 8 days, then treated with 10 ml per pot of aqueous solutions of wettable powders prepared in accordance with Formulation Example 2, at a concentration of 500 ppm in terms of the active ingredients and dried in the air. Then, the seedlings were inoculated with Erysiphe graminis spores by sprinkle over the plant and placed in a greenhouse of from 20 to 25° C. 10 days after the inoculation, the total diseases area of the first leaves in each pot was observed and evaluated on the basis of the standards shown in Table 67. [table]

| Compound | Biological effectiveness |
| --- | --- |
| CCOc1cc(OCC)nc(-n2c(C)nc3cc(Cl)ccc32)n1 [Compound I-499] | A (No diseased area) |
| CCOc1cc(OCC)nc(-n2c(C)nc3cc(C)ccc32)n1 [Compound I-501] | A (No diseased area) |
| CCOc1cc(OCC)nc(-n2c(C)nc3cc(C(F)(F)F)ccc32)n1 [Compound I-502] | A (No diseased area) |
| CCOc1cc(OCC)nc(-n2c(C)nc3cc(OC)ccc32)n1 [Compound I-503] | A (No diseased area) |
| CCOc1cc(OCC)nc(-n2c(C)nc3ccc(F)cc32)n1 [Compound I-507] | A (No diseased area) |
| CCOc1cc(OCC)nc(-n2c(C)nc3ccc(Cl)cc32)n1 [Compound I-508] | B (Diseased area of less than 25%) |
| CCOc1cc(OCC)nc(-n2c(C)nc3ccc(C(F)(F)F)cc32)n1 [Compound I-510] | A (No diseased area) |
| CCOc1cc(OCC)nc(-n2c(C)nc3ccc(OC)cc32)n1 [Compound I-511] | A (No diseased area) |
| CCOc1nc(OCC)nc(-n2c(C)nc3cc(Cl)ccc32)n1 [Compound I-514] | A (No diseased area) |
| CCOc1nc(OCC)nc(-n2c(C)nc3cc(Br)ccc32)n1 [Compound I-515] | A (No diseased area) |
| CCOc1nc(OCC)nc(-n2c(C)nc3cc(C)ccc32)n1 [Compound I-516] | A (No diseased area) |
| CCOc1cc(OCC)nc(-n2c(Cl)nc3cc(C)ccc32)n1 [Compound I-530] | A (No diseased area) |
| CCOc1cc(OCC)nc(-n2c(Cl)nc3cc(OC)ccc32)n1 [Compound I-531] | A (No diseased area) |
| CCOc1nc(OCC)nc(-n2c(Cl)nc3cc(Cl)ccc32)n1 [Compound I-534] | A (No diseased area) |
| CCOc1nc(OCC)nc(-n2c(C(F)(F)F)nc3cc(C)ccc32)n1 [Compound I-543] | A (No diseased area) |
| CCOc1nc(OCC)nc(-n2c(C(F)(F)F)nc3cc(OC)ccc32)n1 [Compound I-544] | A (No diseased area) |
| CCOc1nc(OCC)nc(-n2c(C(F)(F)F)nc3cc(Cl)ccc32)n1 [Compound I-545] | A (No diseased area) |
| CCOc1nc(OCC)nc(-n2c(C(F)(F)F)nc3cc(Br)ccc32)n1 [Compound I-546] | A (No diseased area) |
| CCOc1nc(OCC)nc(-n2c(C(Cl)(Cl)Cl)nc3cc(Cl)ccc32)n1 [Compound I-550] | A (No diseased area) |
| CCOc1cc(OCC)nc(-n2c(S(C)(=O)=O)nc3cc(Cl)ccc32)n1 [Compound I-573] | B (Diseased area of less than 25%) |
| CCCOc1nc(OCCC)nc(-n2c(C)nc3cc(Cl)ccc32)n1 [Compound I-580] | A (No diseased area) |
| Cc1nc2cc(Cl)ccc2n1-c1nc(OC(C)C)nc(OC(C)C)n1 [Compound I-592] | A (No diseased area) |
| CC(C)Oc1nc(OC(C)C)nc(-n2c(C(F)(F)F)nc3cc(Cl)ccc32)n1 [Compound I-595] | B (Diseased area of less than 25%) |
| C=CCOc1nc(OCC=C)nc(-n2c(C)nc3cc(Cl)ccc32)n1 [Compound I-601] | A (No diseased area) |

| Compound | Biological effectiveness |
| --- | --- |
| COc1ccnc(-n2cnc3cc(Cl)ccc32)n1 [Compound I-669] | B (Diseased area of less than 25%) |
| COc1ccnc(-n2cnc3cc(C)ccc32)n1 [Compound I-670] | B (Diseased area of less than 25%) |
| COc1ccnc(-n2c(C)nc3cc(Cl)ccc32)n1 [Compound I-671] | B (Diseased area of less than 25%) |
| COc1ccnc(-n2c(C)nc3cc(C)ccc32)n1 [Compound I-672] | B (Diseased area of less than 25%) |
| COc1ccnc(-n2c(C)nc3ccc(Cl)cc32)n1 [Compound I-675] | B (Diseased area of less than 25%) |
| COc1ccnc(-n2c(C(F)(F)F)nc3cc(Cl)ccc32)n1 [Compound I-682] | A (No diseased area) |
| COc1ccnc(-n2c(C(F)(F)F)nc3cc(C)ccc32)n1 [Compound I-683] | A (No diseased area) |
| CCOc1ccnc(-n2cnc3ccccc32)n1 [Compound I-690] | A (No diseased area) |
| CCOc1ccnc(-n2cnc3cc(Cl)ccc32)n1 [Compound I-692] | B (Diseased area of less than 25%) |
| CCOc1ccnc(-n2cnc3cc(C)ccc32)n1 [Compound I-693] | A (No diseased area) |
| CCOc1ccnc(-n2c(C)nc3cc(Cl)ccc32)n1 [Compound I-694] | B (Diseased area of less than 25%) |
| CCOc1ccnc(-n2c(C)nc3cc(C)ccc32)n1 [Compound I-695] | A (No diseased area) |
| CCOc1ccnc(-n2c(C(F)(F)F)nc3cc(Cl)ccc32)n1 [Compound I-704] | B (Diseased area of less than 25%) |
| CCOc1ccnc(-n2c(C(F)(F)F)nc3cc(C)ccc32)n1 [Compound I-705] | A (No diseased area) |
| COc1cc(C)nc(-n2cnc3ccccc32)n1 [Compound I-726] | B (Diseased area of less than 25%) |
| COc1cc(C)nc(-n2c(C)nc3cc(Cl)ccc32)n1 [Compound I-731] | B (Diseased area of less than 25%) |
| COc1nc(C)nc(-n2c(C)nc3cc(C)ccc32)n1 [Compound I-752] | A (No diseased area) |
| COc1nc(C)nc(-n2c(Cl)nc3cc(C)ccc32)n1 [Compound I-758] | A (No diseased area) |
| COc1nc(C)nc(-n2c(C(F)(F)F)nc3cc(C)ccc32)n1 [Compound I-762] | A (No diseased area) |
| COc1nc(C)nc(-n2c(N)nc3cc(C)ccc32)n1 [Compound I-767] | B (Diseased area of less than 25%) |
| CCOc1cc(C)nc(-n2cnc3ccccc32)n1 [Compound I-768] | A (No diseased area) |
| CCOc1cc(C)nc(-n2c(C)nc3ccccc32)n1 [Compound I-769] | A (No diseased area) |
| CCOc1cc(C)nc(-n2c(Cl)nc3ccccc32)n1 [Compound I-771] | A (No diseased area) |
| CCOc1cc(C)nc(-n2cnc3cc(C)ccc32)n1 [Compound I-772] | A (No diseased area) |

| Compound | Biological effectiveness |
| --- | --- |
| CCOc1cc(C)nc(-n2c(C)nc3cc(C)ccc32)n1 [Compound I-775] | A (No diseased area) |
| CCCOc1cc(C)nc(-n2cnc3ccccc32)n1 [Compound I-804] | A (No diseased area) |
| CCCOc1cc(C)nc(-n2cnc3cc(OC)ccc32)n1 [Compound I-805] | B (Diseased area of less than 25%) |
| CCCOc1cc(C)nc(-n2c(C)nc3ccccc32)n1 [Compound I-806] | B (Diseased area of less than 25%) |
| CCCOc1cc(C)nc(-n2cnc3cc(C)ccc32)n1 [Compound I-809] | B (Diseased area of less than 25%) |
| CCCOc1cc(C)nc(-n2c(Cl)nc3cc(OC)ccc32)n1 [Compound I-818] | B (Diseased area of less than 25%) |
| CCCOc1nc(C)nc(-n2c(C)nc3cc(C)ccc32)n1 [Compound I-831] | B (Diseased area of less than 25%) |
| Cc1cc(OC(C)C)nc(-n2cnc3ccccc32)n1 [Compound I-839] | A (No diseased area) |
| Cc1cc(OC(C)C)nc(-n2c(C)nc3ccccc32)n1 [Compound I-840] | B (Diseased area of less than 25%) |
| CCCCOc1cc(C)nc(-n2cnc3ccccc32)n1 [Compound I-872] | B (Diseased area of less than 25%) |
| C=CCOc1cc(C)nc(-n2cnc3ccccc32)n1 [Compound I-883] | A (No diseased area) |
| C=CCOc1cc(C)nc(-n2c(C)nc3ccccc32)n1 [Compound I-885] | B (Diseased area of less than 25%) |
| C#CCOc1cc(C)nc(-n2cnc3ccccc32)n1 [Compound I-894] | B (Diseased area of less than 25%) |
| C#CCOc1cc(C)nc(-n2cnc3cc(C)ccc32)n1 [Compound I-895] | B (Diseased area of less than 25%) |
| C#CCOc1cc(C)nc(-n2c(C(F)(F)F)nc3cc(C)ccc32)n1 [Compound I-903] | B (Diseased area of less than 25%) |
| C#CCOc1cc(C)nc(-n2c(N)nc3cc(C)ccc32)n1 [Compound I-904] | B (Diseased area of less than 25%) |
| CSc1nc(C)nc(-n2c(C)nc3cc(C)ccc32)n1 [Compound I-915] | A (No diseased area) |
| CCCc1cc(OC)nc(-n2cnc3ccccc32)n1 [Compound I-958] | B (Diseased area of less than 25%) |
| CCCc1cc(OC)nc(-n2c(C)nc3ccccc32)n1 [Compound I-959] | A (No diseased area) |
| CCCc1cc(OC)nc(-n2c(Cl)nc3ccccc32)n1 [Compound I-960] | A (No diseased area) |
| CCCc1cc(OC)nc(-n2cnc3cc(C)ccc32)n1 [Compound I-962] | A (No diseased area) |
| CCCc1cc(OC)nc(-n2c(C)nc3cc(Cl)ccc32)n1 [Compound I-964] | B (Diseased area of less than 25%) |
| CCCc1cc(OC)nc(-n2c(C)nc3cc(C)ccc32)n1 [Compound I-965] | A (No diseased area) |
| CCCc1cc(OC)nc(-n2c(C)nc3ccc(Cl)cc32)n1 [Compound I-967] | A (No diseased area) |
